Bounds are passed on as bounds.

One experiment addresses T1, androgen receptor (AR) (Homo sapiens, UniProt P10275, T878A).
T1 construct: LNCaP cells expressing ARR2PB-FireflyLuc and CMV-RenillaLuc; endogenous in cells; host or cells: LNCaP cells carrying ARR2PB-FireflyLuc and CMV-RenillaLuc reporters
T1 sequence (P10275 1-920 T878A): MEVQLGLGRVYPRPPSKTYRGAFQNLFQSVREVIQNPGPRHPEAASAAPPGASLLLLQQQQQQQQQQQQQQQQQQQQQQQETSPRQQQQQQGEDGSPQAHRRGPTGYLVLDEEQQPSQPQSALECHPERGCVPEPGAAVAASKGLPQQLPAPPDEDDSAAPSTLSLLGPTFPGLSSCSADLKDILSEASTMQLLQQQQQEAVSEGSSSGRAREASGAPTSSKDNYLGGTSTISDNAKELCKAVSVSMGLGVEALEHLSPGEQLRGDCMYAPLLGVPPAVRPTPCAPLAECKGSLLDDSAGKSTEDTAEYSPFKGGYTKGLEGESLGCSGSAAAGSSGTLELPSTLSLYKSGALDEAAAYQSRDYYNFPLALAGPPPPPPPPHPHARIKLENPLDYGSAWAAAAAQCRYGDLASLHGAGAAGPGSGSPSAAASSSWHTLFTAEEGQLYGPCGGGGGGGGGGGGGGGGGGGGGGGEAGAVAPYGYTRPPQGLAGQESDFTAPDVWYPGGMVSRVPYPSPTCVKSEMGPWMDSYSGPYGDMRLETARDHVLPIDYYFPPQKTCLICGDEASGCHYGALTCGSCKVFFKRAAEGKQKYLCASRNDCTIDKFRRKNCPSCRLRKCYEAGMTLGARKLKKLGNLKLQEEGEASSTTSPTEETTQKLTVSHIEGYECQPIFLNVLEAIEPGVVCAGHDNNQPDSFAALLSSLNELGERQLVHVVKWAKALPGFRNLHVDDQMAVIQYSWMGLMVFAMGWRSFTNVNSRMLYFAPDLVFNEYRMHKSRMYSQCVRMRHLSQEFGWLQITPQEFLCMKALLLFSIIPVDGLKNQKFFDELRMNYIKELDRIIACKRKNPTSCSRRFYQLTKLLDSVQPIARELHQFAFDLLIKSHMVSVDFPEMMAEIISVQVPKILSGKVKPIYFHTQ
Briefly: AR reporter assay in LNCaP cells expressing ARR2PB-FireflyLuc and CMV-RenillaLuc, antagonist mode (% remaining activity, IC50). It counts as cell-based. The note with it: 48 h at 37° C., class symbols A-D, read-out: IC50. On the procedure:
LNCaP cells expressing ARR2PB-FireflyLuc and CMV-RenillaLuc were treated with indicated concentrations of test compounds, enzalutamide (negative control), or DHT (positive control)+/−0.5 nM DHT for 48 h at 37° C. […] Remaining activity (antagonist mode) was calculated as % Remaining Activity=100×[(Readsample−LCave)/(HCave−LCave)] where HC is cells treated with 0.5 nM DHT only and LC is cells treated with 10 uM enzalutamide+0.5 nM DHT. Activation (agonist mode) was calculated as % Activation=100×[(ReadSample−LCave)/(HCave−LCave)] where HC is cells treated with 1 uM DHT and LC is cells treated with DMSO. Dose response curves and IC50 values were calculated using non-linear regression analysis in XLfit.
The designation “A” indicates an IC50 value of >10 μM, “B” indicates an IC50 value between 1 μM and 10 μM; “C” indicates an IC50 value between 100 nM and 1 μM; and “D” indicates an IC50 value of less than 100 nM.
(In general: A reporter such as luciferase makes a cellular process visible.)
Regarding `Fc1cc2[nH]nc(-c3ccc4c(n3)OCCN4)c2cc1F` [Compound 69], the concentration for half-maximal inhibition (IC50) was more than 10 µM.
The same measure, in the same setting: in the case of `CC1CNc2ccc(-c3n[nH]c4cc(F)c(F)cc34)nc2O1` (centres unmarked) [Compound 70] it was more than 10 µM; in that of `CC1(C)NCc2ccc(-c3n[nH]c4cc(F)c(F)cc34)nc21` [Compound 71], more than 10 µM.
`CC(C)(O)c1ccc(-c2n[nH]c3cc(F)c(F)cc23)nc1` [Compound 72]: the IC50 is more than 10 µM.
With `CC(C)(O)c1ccc(-c2n[nH]c3cc(F)c(F)cc23)cn1` [Compound 73], the IC50 is more than 10 µM.
In the case of `Fc1cc2[nH]nc(-c3ccc4c(n3)NCCO4)c2cc1F` [Compound 74], the IC50 was 1 to 10 µM.
For `CN1CCOc2ccc(-c3n[nH]c4cc(F)c(F)cc34)nc21` [Compound 75], the IC50 was in the range of 1 to 10 µM.
Still for that read-out and setting: then `CC(C)N1CCOc2ccc(-c3n[nH]c4cc(F)c(F)cc34)nc21` [Compound 76], with 1 to 10 µM.
On to `CC1(C)CCNc2ccc(-c3n[nH]c4ccccc34)nc21` [Compound 77], for which the IC50 was in the range of 0.1 to 1 µM.
In the case of `CC1(C)CCNc2ccc(-c3n[nH]c4ccc(F)cc34)nc21` [Compound 78], the concentration for half-maximal inhibition (IC50) is 0.1 to 1 µM.
For `CCOC(=O)c1coc(-c2n[nH]c3c(C)cccc23)n1` [Compound 79], the IC50 is more than 10 µM.
Turning to `Cc1cc(-c2n[nH]c3cc(F)c(F)cc23)nc2c1NC(=O)CC2` [Compound 80], the IC50 lay in the range of 1 to 10 µM.
Consider `c1ccc(-c2cc(-c3ccc4c(n3)CCCN4)n[nH]2)cc1` [Compound 81], for which the IC50 is more than 10 µM.
As to `Cc1[nH]nc(-c2ccc3c(n2)CCCN3)c1C` [Compound 82], the IC50 was more than 10 µM.
With `c1cc2c(nc1-c1n[nH]c3c1COCC3)CCCN2` [Compound 83], the IC50 was more than 10 µM.
With `c1ccc(-c2cc(-c3ccc4c(n3)CCCN4)n[nH]2)nc1` [Compound 84], the IC50 is more than 10 µM.
Turning to `N#Cc1cccc2c(-c3ccc4ncccc4n3)nn(C3CCCCO3)c12` (centres unmarked) [Compound 85], the IC50 is more than 10 µM.
With `NCc1cccc2c(-c3ccc4ncccc4n3)n[nH]c12` [Compound 86], the IC50 lay in the range of 0.1 to 1 µM.
For `CC(C)NCc1cccc2c(-c3ccc4ncccc4n3)n[nH]c12` [Compound 87], the IC50 is 1 to 10 µM.
On to `CC(C)c1nc(-c2n[nH]c3cc(F)c(F)cc23)ccc1N` [Compound 88], for which the IC50 was 1 to 10 µM.
Same read-out and setting: then `CC(C)Oc1nc(-c2n[nH]c3cc(F)c(F)cc23)ccc1N` [Compound 89], with 1 to 10 µM; and `CCOc1nc(-c2n[nH]c3cc(F)c(F)cc23)ccc1N` [Compound 90], with 1 to 10 µM.
For the molecule `COc1nc(-c2n[nH]c3cc(F)c(F)cc23)ccc1N` [Compound 91], the IC50 lay in the range of 0.1 to 1 µM.
As to `Nc1ccc(-c2n[nH]c3cc(F)c(F)cc23)nc1C(F)(F)F` [Compound 92], the concentration for half-maximal inhibition (IC50) fell in the range of 0.1 to 1 µM.
As to `Nc1ccc(-c2n[nH]c3cc(F)c(F)cc23)nc1Cl` [Compound 93], the IC50 lay within 0.1 to 1 µM.
Regarding `CNc1ccc(-c2n[nH]c3cc(F)c(F)cc23)nc1C` [Compound 94], the IC50 lay in the range of 1 to 10 µM.
Still for that read-out and setting: then `CCNc1ccc(-c2n[nH]c3cc(F)c(F)cc23)nc1C` [Compound 95], with 1 to 10 µM; and `CC(=O)Nc1ccc(-c2n[nH]c3cc(F)c(F)cc23)nc1C` [Compound 96], with more than 10 µM.
Regarding `CC(=O)N(C)c1ccc(-c2n[nH]c3cc(F)c(F)cc23)nc1C` [Compound 97], the IC50 was more than 10 µM.
Consider `Cc1nc(-c2n[nH]c3cc(F)c(F)cc23)ccc1N(C)C` [Compound 98], for which the IC50 lay in the range of 1 to 10 µM.
On to `COc1ccc(-c2n[nH]c3cc(F)c(F)cc23)nc1C` [Compound 99], for which the IC50 lay within 0.1 to 1 µM.
In the case of `CNC(=O)c1ccc(-c2n[nH]c3cc(F)c(F)cc23)nc1C` [Compound 100], the IC50 is more than 10 µM.
Same read-out and setting: in the case of `Cc1nc(-c2n[nH]c3cc(F)c(F)cc23)ccc1C(N)=O` [Compound 101] it was more than 10 µM; in that of `Cc1nc(-c2n[nH]c3cc(F)c(F)cc23)ccc1C(=O)N(C)C` [Compound 102], more than 10 µM; in that of `Cc1nc(-c2n[nH]c3cc(F)c(F)cc23)ccc1C#N` [Compound 103], less than 0.1 µM.
The same measure, in the same setting: then `CC1c2nc(-c3n[nH]c4cc(F)c(F)cc34)ccc2C(=O)N1C` (centres unmarked) [Compound 104], with 0.1 to 1 µM; and `CC1NC(=O)c2ccc(-c3nn(C)c4cc(F)c(F)cc34)nc21` (centres unmarked) [Compound 105], with more than 10 µM; and `COc1ccc(CN2C(=O)c3ccc(-n4ncc5cc(F)c(F)cc54)nc3C2C)cc1` (centres unmarked) [Compound 106], with more than 10 µM.
For the molecule `CC1NC(=O)c2ccc(-n3ncc4cc(F)c(F)cc43)nc21` (centres unmarked) [Compound 107], the IC50 was more than 10 µM.
As for `CC1NC(=O)c2ccc(-n3cnc4cc(F)c(F)cc43)nc21` (centres unmarked) [Compound 108], the IC50 is more than 10 µM.
In the case of `CC1NC(=O)c2ccc(-c3n[nH]c4ccccc34)cc21` (centres unmarked) [Compound 109], the IC50 is 0.1 to 1 µM.
Take `CC1(C)NC(=O)c2ccc(-c3n[nH]c4cc(F)c(F)cc34)cc21` [Compound 110]: the IC50 is more than 10 µM.
Consider `Fc1ccc(-c2n[nH]c3cc(F)ccc23)nc1` [Compound 111], for which the IC50 was in the range of 0.1 to 1 µM.
In the case of `Fc1ccc(-c2n[nH]c3cccnc23)nc1` [Compound 112], the IC50 was more than 10 µM.
`Fc1ccc(-c2n[nH]c3ncccc23)cc1` [Compound 113]: the IC50 fell in the range of 1 to 10 µM.
`O=C1NCc2nc(-c3n[nH]c4ccccc34)ccc21` [Compound 114]: the IC50 lay within 1 to 10 µM.
For `O=S1(=O)CCNc2ccc(-c3n[nH]c4cc(F)c(F)cc34)nc21` [Compound 115], the IC50 is more than 10 µM.
Regarding `Fc1ccc(-c2n[nH]c3ncccc23)nc1` [Compound 116], the IC50 lay within 1 to 10 µM.
For the molecule `FC(F)(F)c1ccc(-c2c[nH]c3ccccc23)nc1` [Compound 118], the IC50 is 0.1 to 1 µM.
The same measure, in the same setting: in the case of `Fc1ccc(-c2c[nH]c3ccccc23)nc1` [Compound 119] it was 0.1 to 1 µM.
Same read-out and setting: in the case of `N#Cc1cccc2c(-c3ccc4ccc(F)cc4n3)c[nH]c12` [Compound 120] it was less than 0.1 µM; in that of `N#Cc1cccc2c(-c3ccc4c(n3)CCCN4)c[nH]c12` [Compound 121], less than 0.1 µM.
Consider `CC1(C)NC(=O)c2ccc(-c3c[nH]c4cc(F)c(F)cc34)nc21` [Compound 122], for which the IC50 was in the range of 0.1 to 1 µM.
On to `CCOC(=O)c1coc(-c2c[nH]c3c(C)cccc23)n1` [Compound 123], for which the IC50 was more than 10 µM.
For `Cc1nc(-c2c[nH]c3cc(F)c(F)cc23)ccc1N` [Compound 124], the IC50 lay within 1 to 10 µM.
With `Cc1nc(-c2c[nH]c3c(C#N)cccc23)ccc1N` [Compound 125], the IC50 fell in the range of 0.1 to 1 µM.
Same read-out and setting: then `Fc1ccc(-c2c[nH]c3ncccc23)nc1` [Compound 126], with 0.1 to 1 µM; and `N#Cc1cccc2c(-c3ccc(F)cn3)c[nH]c12` [Compound 127], with less than 0.1 µM; and `c1cnc2[nH]cc(-c3ccc(C4CC4)cn3)c2c1` [Compound 128], with 0.1 to 1 µM.
Same read-out and setting: in the case of `c1cnc2[nH]cc(-c3ccc(C4COC4)cn3)c2c1` [Compound 129] it was 1 to 10 µM.
As to `Cc1nc(-c2c[nH]c3c(C#N)cc(F)cc23)ccc1N` [Compound 130], the IC50 is 0.1 to 1 µM.
The same measure, in the same setting: then `Cc1nc(-c2c[nH]c3c(C#N)cc(F)cc23)ccc1F` [Compound 131], with less than 0.1 µM.
Turning to `N#Cc1cccc2c(-c3ccc(N)cn3)c[nH]c12` [Compound 132], the IC50 was in the range of 1 to 10 µM.
The same measure, in the same setting: then `Cc1cccc(-c2c[nH]c3c(C#N)cccc23)n1` [Compound 133], with 0.1 to 1 µM; and `Cc1nc(-c2c[nH]c3cccnc23)ccc1N` [Compound 134], with more than 10 µM.
Turning to `Cc1nc(-c2c[nH]c3ncccc23)ccc1N` [Compound 135], the IC50 lay within 1 to 10 µM.
Take `CC1NC(=O)c2ccc(-c3c[nH]c4cc(F)c(F)cc34)nc21` (centres unmarked) [Compound 136]: the IC50 is 0.1 to 1 µM.

The experiment is the same for the next values; noted with them: IC50 (μM), 48 h at 37° C., class symbols A-D.
`c1ccc2nc(-c3n[nH]c4ccccc34)ccc2c1` [Compound 117] returned an IC50 of 0.1 to 1 µM.

A word on the IC50: it is the concentration needed to halve the response being measured.

Values taken from US12448368B2, “Indole compounds as androgen receptor modulators” (NIDO BIOSCIENCES, INC., priority 2020, dated 2025).
